Key:
[1] = test system: drug-refractory NSCLC cells (H1792, H520, HCC366); test: Cell viability assay (CellTiter-Glo) across drug-refractory NSCLC cell lines; assay type: cell-based, human
Procedure: Cells were seeded in Corning 384-well black walled/clear bottom microplates with a density of 1,000 cells/well and treated with indicated drugs and concentrations following cell attachment for 24 h. After 72 h or 96 h, as indicated, cell viability was evaluated with CellTiter-Glo (Promega, Madison, WI) according to manufacturer's recommendations. An M5 Spectramax plate reader (Molecular devices) was used to read the plates with 500 ms integration. Data was processed and analyzed using Excel and GraphPad Prism 9.0.

GSTZ1 = target: T1, GSTZ1 (Homo sapiens, UniProt O43708); test: GSTZ1 pulldown and competition after photocrosslinking in live H1792 cells (biotin enrichment, immunoblotting); assay type: binding; parameters: endogenous in cells; host or cells: H1792 cells; settings: UV crosslinking
T1 sequence (O43708 1-216): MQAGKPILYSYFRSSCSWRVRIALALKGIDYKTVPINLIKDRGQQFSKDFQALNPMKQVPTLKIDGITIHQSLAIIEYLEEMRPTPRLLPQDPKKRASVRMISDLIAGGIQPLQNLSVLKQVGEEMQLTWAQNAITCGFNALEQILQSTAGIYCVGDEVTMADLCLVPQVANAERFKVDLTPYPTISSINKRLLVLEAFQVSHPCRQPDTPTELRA
Procedure: Cells were harvested and washed with PBS and lysed in RIPA buffer (150 mM NaCl, 50 mM Tris-HCl, pH 7.4, 5 mM EDTA, 1% NP40, 0.1% SDS) containing complete protease inhibitor cocktail (Roche, 11873580001) and phosphatase inhibitor cocktail 2 (Sigma, P5726) for 30 min on ice. The Coomassie Plus (Bradford) protein assay (23236, ThermoFisher, MA) was conducted for measuring concentrations of resulting supernatants. Samples were prepared by adding 4× Laemmli sample buffer and heat-denaturing for 5 minutes. All samples or total cell lysates were resolved by SDS-PAGE and then transferred onto PVDF membranes. 5% non-fat milk was utilized for blocking of non-specific binding. Blots were incubated with primary antibodies overnight at 4° C. For immunoblotting, primary antibodies were purchased from Cell Signaling: PARP1 (#9542), cleaved caspase-3 (#9661), Phospho-tyrosine Mouse mAb (P-Tyr-100, #9411), FGFR1 (#9740). GAPDH (#60004-1-Ig) and GSTZ1 (#14889-1-AP) were purchased from Proteintech. […] Densitometry was analyzed using Image Studio Lite Ver 5.2.
Cells were grown in 10 cm dishes to ˜90% confluence at the time of treatment. […] Protein concentrations were determined using Bradford assays. […]

GSTZ1 enrichment by probe (affinity enrichment, immunoblotting with GSTZ1 antibody) (GSTZ1): specifically enriched
Compound: C#CCCC1(CCC(=O)N2CCC(COc3nc4ccccc4nc3C)CC2)N=N1 [Probe 17, 3-(3-(but-3-yn-1-yl)-3H-diazirin-3-yl)-1-(4-(((3-methylquinoxalin-2-yl)oxy)methyl)piperidin-1-yl)propan-1-one]
single agent activity (cell viability) [1]: moderate single agent activity
cellular activity of probes (cell viability) ([1]; single agent): displayed activity toward multiple tested cell lines
relative potency among active probes (cell viability) ([1]; single agent): more potent

From patent publication US20250313544A1, “INHIBITORS OF GLUTATHIONE S-TRANSFERASE ZETA 1 (GSTZ1) AND METHODS OF USE” (H. LEE MOFFITT CANCER CENTER AND RESEARCH INSTITUTE, INC., priority 2022, published 2025)
